The target of the assay is T1, human α7 nAChR (Homo sapiens, UniProt P36544).
T1 construct: host or cells: HEK
The experiment in a line: Automated patch-clamp electrophysiology functional assay (Assay A). The assay is classed as cell-based. The settings on record: HEK cell line stably expressing human RIC-3 and human α7, IonFlux HT whole-cell population patch, with or without 40 μM acetylcholine. The procedure:
The α7 nAChR positive allosteric modulator (PAM) activity of the present compounds may be tested using assays known in the art. The α7 nAChR PAMs described herein have activities in an automated patch-clamp electrophysiology functional assay as described in the examples. The assay was performed using the IonFlux HT in a whole-cell, population patch configuration. See Golden et al. Assay Drug Dev. Technol. (2011) 9:608-619. The compounds were assessed for their ability to modulate the function of the human α7 nAChR stably expressed in a HEK cell line both in the presence, and in the absence of the natural α7 agonist acetylcholine. By performing a series of such measurements at different concentrations, the effective concentration of the α7 nAChR PAMs (EC50) was determined. See Spencer et al. Assay Drug Dev. Technol. (2012) 10:313-324.
Direct activation of α7 (agonism), and potentiation of acetylcholine-evoked α7 currents was determined as follows:
Automated patch-clamp electrophysiology was performed using the IonFlux HT (Fluxion Biosciences Inc., San Francisco, CA) in the whole-cell, population patch configuration. Test compounds were assessed for their ability to modulate the function of the α7 nicotinic acetylcholine receptor both in the presence, and in the absence of the natural α7 agonist acetylcholine. A HEK cell line stably expressing both human RIC-3 and human α7 (PrecisION hnAChR α7/RIC-3, Eurofins Pharma, St. Charles, MO) was cultured in 175 cm^2 triple-layer tissue culture flasks to no more than 90% confluency in DMEM/F-12 growth media supplemented with 10% heat-inactivated fetal bovine serum, 1% non-essential amino acids, 0.625 μg/mL Puromycin, and 400 μg/mL Geneticin. Immediately prior to assay, cells were detached by first aspirating growth media, rinsing with Dulbecco's phosphate buffered saline, and then adding 10 mL of Accutase (Innovative Cell Technologies, San Diego, CA) to the flask and then incubating at 37° C. for 5 minutes. Detached cells were then recovered by the addition of 40 mL of CHO-serum-free media supplemented with 25 mM HEPES, and rocked gently in a 50 mL conical tube for 20 minutes prior to patch-clamp assay. After recovery, cells were pelleted by centrifugation at 1,000 RPM for 1 minute in a compact bench top centrifuge; recovery media was aspirated and cells were resuspended in external recording solution (150 mM NaCl, 5 mM KCl, 2 mM CaCl2, 1 mM MgCl2, 10 mM HEPES, 12 mM dextrose) to a density of 5.0×10^6 cells/mL. The cell suspension was added to the cell inlet wells on an IonFlux HT population patch plate which had previously been rinsed and primed with deionized H2O. Test compounds were serially diluted in DMSO and then resuspended to the final test concentration in external recording solution, with, or without 40 μM acetylcholine added to the external recording solution; test compounds were then transferred to the IonFlux HT population patch plate. Internal recording solution (110 mM TrisPO4, 28 mM TrisBase, 0.1 mM CaCl2, 2 mM MgCl2, 11 mM EGTA, 4 mM MgATP) was added to the internal recording solution inlet wells on the IonFlux HT patch plate previously loaded with cells and test compounds, and the plate loaded into the IonFlux HT instrument. A protocol was executed on the IonFlux HT to trap the cells, break into the cells, and establish the whole-cell recording configuration; cells were voltage-clamped at a holding potential of −60 mV for the duration of the experiment, all experiments were conducted at room temperature, and the IonFlux HT injection pressure was 8 psi for solution applications. Upon establishing the whole-cell configuration, external recording solution was perfused into the recording chambers for 120 seconds and then 40 μM acetylcholine was applied for 1 second and immediately washed off with external recording solution for 60 seconds. […]
(Patch clamp records ionic current or voltage across a cell membrane.)

Here are results for 23 compounds from patent US12331022B2, “Spiropiperidine allosteric modulators of nicotinic acetylcholine receptors” (Merck Sharp & Dohme LLC, priority 2019, dated 2025).

Like-named read-outs stand apart in the source and are kept apart here.

T1 sequence (P36544 23-502): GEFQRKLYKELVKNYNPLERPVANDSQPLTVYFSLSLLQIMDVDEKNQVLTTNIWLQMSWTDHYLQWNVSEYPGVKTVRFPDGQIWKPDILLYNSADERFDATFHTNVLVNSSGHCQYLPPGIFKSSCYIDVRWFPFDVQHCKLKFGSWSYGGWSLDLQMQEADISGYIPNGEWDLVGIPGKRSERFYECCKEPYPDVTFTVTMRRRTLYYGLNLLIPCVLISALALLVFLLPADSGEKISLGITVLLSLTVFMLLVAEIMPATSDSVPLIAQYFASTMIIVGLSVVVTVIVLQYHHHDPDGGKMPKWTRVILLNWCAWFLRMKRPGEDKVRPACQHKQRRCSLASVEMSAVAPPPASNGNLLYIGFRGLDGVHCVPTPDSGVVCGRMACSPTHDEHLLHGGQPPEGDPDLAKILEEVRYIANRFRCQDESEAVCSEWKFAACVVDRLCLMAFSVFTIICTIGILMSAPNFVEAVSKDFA

Regarding `NS(=O)(=O)N1CCC2(CC1)C(COc1cccc(OCC(F)(F)F)c1)C2(F)F` (single isomer, unassigned) [Example A30, 1,1-difluoro-2-{[3-(2,2,2-trifluoroethoxy)phenoxy]methyl}-6-azaspiro[2.5]octane-6-sulfonamide], the EC50 is 58 nM (read-out: α7 nAChR EC50) and not above 100 nM (read-out: α7 nAChR Potency).

In the case of `CC(F)(F)c1cccc(OC[C@@H]2CC23CCN(S(N)(=O)=O)CC3)n1` [Example A56, (1R)-1-({[6-(1,1-difluoroethyl)pyridin-2-yl]oxy}methyl)-6-azaspiro[2.5]octane-6-sulfonamide], the EC50 was 740 nM (read-out: α7 nAChR EC50) and 500 to 5000 nM (read-out: α7 nAChR Potency).

As to `NS(=O)(=O)N1CCC2(CC1)CC2COc1ccnc(OCC(F)(F)F)c1` (racemic) [Example A32, 1-({[2-(2,2,2-trifluoroethoxy)pyridin-4-yl]oxy}methyl)-6-azaspiro[2.5]octane-6-sulfonamide], the EC50 is 140 nM (read-out: α7 nAChR EC50) and 100 to 500 nM (read-out: α7 nAChR Potency).

For the compound `NS(=O)(=O)N1CCC2(CC1)CC2COc1cccc(OC(F)F)c1` (racemic) [Example A23, 1-{[3-(difluoromethoxy)phenoxy]methyl}-6-azaspiro[2.5]octane-6-sulfonamide], the EC50 reads like this: (read-out: α7 nAChR EC50) 150 nM; (read-out: α7 nAChR Potency) 100 to 500 nM.

Consider `NS(=O)(=O)N1CCC2(CC2COc2noc(-c3ccccc3)n2)C(F)(F)C1` (racemic) [Example A22, 4,4-difluoro-1-{[(5-phenyl-1,2,4-oxadiazol-3-yl)oxy]methyl}-6-azaspiro[2.5]octane-6-sulfonamide], for which the EC50 (read-out: α7 nAChR EC50) is 3100 nM and the EC50 (read-out: α7 nAChR Potency) was 500 to 5000 nM.

For the compound `NS(=O)(=O)N1CCC2(CC1)C(COc1noc(-c3ccccc3)n1)C2(F)F` (single isomer, unassigned) [Example A21, 1,1-difluoro-2-{[(5-phenyl-1,2,4-oxadiazol-3-yl)oxy]methyl}-6-azaspiro[2.5]octane-6-sulfonamide], the EC50 (read-out: α7 nAChR EC50) was 1100 nM and the EC50 (read-out: α7 nAChR Potency) lay in the range of 500 to 5000 nM.

On to `NS(=O)(=O)N1CCC2(CC1)C[C@H]2COc1cccc(OCC(F)(F)F)n1` [Example A37, (1R)-1-({[6-(2,2,2-trifluoroethoxy)pyridin-2-yl]oxy}methyl)-6-azaspiro[2.5]octane-6-sulfonamide], for which the EC50 reads like this: (read-out: α7 nAChR EC50) 74 nM; (read-out: α7 nAChR Potency) not above 100 nM.

With `NS(=O)(=O)N1CCC2(CC1)C(CSc1ccc(C(F)(F)F)cc1)C2(F)F` (single isomer, unassigned) [Example A44, 1,1-difluoro-2-({[4-(trifluoromethyl)phenyl]sulfanyl}methyl)-6-azaspiro[2.5]octane-6-sulfonamide], the EC50 reads like this: (read-out: α7 nAChR EC50) 150 nM; (read-out: α7 nAChR Potency) 100 to 500 nM.

Turning to `NS(=O)(=O)N1CCC2(CC1)C(COc1ccnc(OCC(F)(F)F)c1)C2(F)F` (single isomer, unassigned) [Example A33, 1,1-difluoro-2-({[2-(2,2,2-trifluoroethoxy)pyridin-4-yl]oxy}methyl)-6-azaspiro[2.5]octane-6-sulfonamide], the EC50 runs as follows: (read-out: α7 nAChR EC50) 20 nM; (read-out: α7 nAChR Potency) not above 100 nM.

For the compound `NS(=O)(=O)N1CCC2(CC1)C[C@@H]2COc1cccc(OCC2CC2)n1` [Example A18, (1S)-1-({[6-(cyclopropylmethoxy)pyridin-2-yl]oxy}methyl)-6-azaspiro[2.5]octane-6-sulfonamide], the EC50 runs as follows: (read-out: α7 nAChR EC50) 300 nM; (read-out: α7 nAChR Potency) 100 to 500 nM.

Consider `Cc1ccn(-c2cccc(OC[C@@H]3CC34CCN(S(N)(=O)=O)CC4)n2)n1` [Example A50, (1R)-1-({[6-(3-methyl-1H-pyrazol-1-yl)pyridin-2-yl]oxy}methyl)-6-azaspiro[2.5]octane-6-sulfonamide], for which the EC50 by setting is: (read-out: α7 nAChR EC50) 250 nM; (read-out: α7 nAChR Potency) 100 to 500 nM.

Turning to `NS(=O)(=O)N1CCC2(CC1)C[C@H]2COc1cccc(NCC(F)(F)F)n1` [Example 10, (1R)-1-[({6-[(2,2,2-Trifluoroethyl)amino]pyridin-2-yl}oxy)methyl]-6-azaspiro[2.5]octane-6-sulfonamide], the EC50 (read-out: α7 nAChR EC50) is 74 nM and the EC50 (read-out: α7 nAChR Potency) is not above 100 nM.

In the case of `NS(=O)(=O)N1CCC2(CC1)C[C@H]2COc1cccc(-c2ccncc2)n1` [Example A58, (1R)-1-[(2,4′-bipyridin-6-yloxy)methyl]-6-azaspiro[2.5]octane-6-sulfonamide], the EC50 (read-out: α7 nAChR Potency) lay within 500 to 5000 nM.

With `COc1ccc(Cl)cc1S(=O)(=O)C[C@@H]1CC12CCN(S(N)(=O)=O)CC2` [Example 12, (1R)-1-{[(5-Chloro-2-methoxyphenyl)sulfonyl]methyl}-6-azaspiro[2.5]octane-6-sulfonamide], the EC50 was 1600 nM (read-out: α7 nAChR EC50) and 500 to 5000 nM (read-out: α7 nAChR Potency).

Regarding `COc1ccc(Cl)cc1NC[C@@H]1C(F)(F)C12CCN(S(N)(=O)=O)CC2` [Example A59, (2R)-2-{[(5-chloro-2-methoxyphenyl)amino]methyl}-1,1-difluoro-6-azaspiro[2.5]octane-6-sulfonamide], the EC50 is, setting by setting: (read-out: α7 nAChR EC50) 22 nM; (read-out: α7 nAChR Potency) not above 100 nM.

As for `NS(=O)(=O)N1CCC2(CC1)C(CSc1nnnn1-c1ccccc1)C2(F)F` (single isomer, unassigned) [Example A62, 1,1-difluoro-2-{[(1-phenyl-1H-tetrazol-5-yl)sulfanyl]methyl}-6-azaspiro[2.5]octane-6-sulfonamide], the EC50 is 2000 nM (read-out: α7 nAChR EC50) and 500 to 5000 nM (read-out: α7 nAChR Potency).

On to `COc1ccc(F)c(OCC2C(F)(F)C23CCN(S(N)(=O)=O)CC3)c1` (single isomer, unassigned) [Example A31, 1,1-difluoro-2-[(2-fluoro-5-methoxyphenoxy)methyl]-6-azaspiro[2.5]octane-6-sulfonamide], for which, under “read-out: α7 nAChR Potency”, the EC50 is not above 100 nM.

For the compound `CC(C)c1cccc(OC[C@@H]2CC23CCN(S(N)(=O)=O)CC3)n1` [Example A53, (1R)-1-({[6-(propan-2-yl)pyridin-2-yl]oxy}methyl)-6-azaspiro[2.5]octane-6-sulfonamide], the EC50 was 640 nM (read-out: α7 nAChR EC50) and 500 to 5000 nM (read-out: α7 nAChR Potency).

For the compound `COc1ccc(Cl)cc1OCC1CC12CCN(S(N)(=O)=O)CC2` (racemic) [Example A42, 1-[(5-chloro-2-methoxyphenoxy)methyl]-6-azaspiro[2.5]octane-6-sulfonamide], the EC50 runs as follows: (read-out: α7 nAChR EC50) 120 nM; (read-out: α7 nAChR Potency) 100 to 500 nM.

Regarding `COc1ccc(Cl)cc1NC(=O)[C@H]1C(F)(F)C12CCN(S(N)(=O)=O)CC2` [Example B3, (1S)—N-(5-chloro-2-methoxyphenyl)-2,2-difluoro-6-sulfamoyl-6-azaspiro[2.5]octane-1-carboxamide], the EC50 reads like this: (read-out: α7 nAChR EC50) 1400 nM; (read-out: α7 nAChR Potency) 500 to 5000 nM.

Regarding `NS(=O)(=O)N1CCC2(CC1)CC2COc1cc(F)ccc1C(F)(F)F` (single isomer, unassigned) [Example A15, 1-{[5-fluoro-2-(trifluoromethyl)phenoxy]methyl}-6-azaspiro[2.5]octane-6-sulfonamide], the EC50 (read-out: α7 nAChR EC50) stood at 470 nM and the EC50 (read-out: α7 nAChR Potency) was 100 to 500 nM.

Take `Cc1cc(C)n(-c2cccc(OC[C@@H]3CC34CCN(S(N)(=O)=O)CC4)n2)n1` [Example A19, (1R)-1-({[6-(3,5-dimethyl-1H-pyrazol-1-yl)pyridin-2-yl]oxy}methyl)-6-azaspiro[2.5]octane-6-sulfonamide]: the EC50 reads like this: (read-out: α7 nAChR EC50) 190 nM; (read-out: α7 nAChR Potency) 100 to 500 nM.

Consider `COc1cc(F)ccc1OC[C@@H]1CC12CCN(S(N)(=O)=O)CC2` [Example A6, (1R)-1-[(4-fluoro-2-methoxyphenoxy)methyl]-6-azaspiro[2.5]octane-6-sulfonamide], for which the EC50 (read-out: α7 nAChR EC50) was 940 nM and the EC50 (read-out: α7 nAChR Potency) is 500 to 5000 nM.
